From ChEMBL document CHEMBL1909046, “DrugMatrix in vitro pharmacology data”

Assays:
[1] = DRUGMATRIX: Purinergic P2X radioligand binding (ligand: [3H] alpha, beta-Methylene-ATP); type: cell membranes, Oryctolagus cuniculus, New Zealand albino, Urinary bladder, Membrane; settings: Not Active = under 50% inhibition at 10 µM
[2] = target: Protein phosphatase 3 catalytic subunit alpha (Homo sapiens, UniProt Q08209); design: species or system Escherichia coli;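 note: inhibition of calcineurin (PP2B) enzyme activity, measured with DiFMUP as the substrate; in other assays of this panel Not Active means under 50% inhibition at 10 µM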
[3] = target: T1, Nitric oxide synthase, inducible (Mus musculus, UniProt P29477); design: species or system Escherichia coli;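 note: inhibition of iNOS enzyme activity measured with L-arginine as substrate; in other assays of this panel Not Active means under 50% inhibition at 10 µM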
T1 sequence (P29477 whole entry): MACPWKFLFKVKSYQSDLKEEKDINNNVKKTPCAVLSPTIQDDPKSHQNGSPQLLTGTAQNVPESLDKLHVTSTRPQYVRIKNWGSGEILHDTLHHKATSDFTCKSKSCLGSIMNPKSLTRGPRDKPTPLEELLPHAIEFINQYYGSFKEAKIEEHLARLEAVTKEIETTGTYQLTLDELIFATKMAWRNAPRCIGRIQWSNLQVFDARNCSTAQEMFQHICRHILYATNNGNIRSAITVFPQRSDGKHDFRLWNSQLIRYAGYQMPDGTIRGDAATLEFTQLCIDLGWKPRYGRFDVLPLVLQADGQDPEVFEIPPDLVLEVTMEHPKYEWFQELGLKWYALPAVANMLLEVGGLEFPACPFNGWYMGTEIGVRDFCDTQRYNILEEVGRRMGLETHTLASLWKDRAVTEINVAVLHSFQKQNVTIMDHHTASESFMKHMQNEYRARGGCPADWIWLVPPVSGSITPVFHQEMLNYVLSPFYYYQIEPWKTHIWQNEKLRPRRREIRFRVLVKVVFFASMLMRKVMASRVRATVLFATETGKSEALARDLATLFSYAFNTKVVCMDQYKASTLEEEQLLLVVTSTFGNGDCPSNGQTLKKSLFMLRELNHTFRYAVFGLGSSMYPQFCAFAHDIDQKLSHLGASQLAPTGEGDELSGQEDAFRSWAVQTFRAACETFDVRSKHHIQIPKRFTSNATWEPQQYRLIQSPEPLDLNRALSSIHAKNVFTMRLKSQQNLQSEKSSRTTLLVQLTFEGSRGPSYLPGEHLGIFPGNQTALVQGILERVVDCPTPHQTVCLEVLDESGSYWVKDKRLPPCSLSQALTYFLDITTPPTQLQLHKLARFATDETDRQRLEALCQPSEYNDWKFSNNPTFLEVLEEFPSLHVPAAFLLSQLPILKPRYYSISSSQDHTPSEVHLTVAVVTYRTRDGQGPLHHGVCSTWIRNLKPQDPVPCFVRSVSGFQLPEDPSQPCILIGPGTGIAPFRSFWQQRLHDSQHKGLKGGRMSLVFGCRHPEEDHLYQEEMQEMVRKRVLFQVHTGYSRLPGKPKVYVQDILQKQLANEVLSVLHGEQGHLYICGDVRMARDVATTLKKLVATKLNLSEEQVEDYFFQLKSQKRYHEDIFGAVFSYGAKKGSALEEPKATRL

Melanocortin receptor 5 = Melanocortin receptor 5 (Homo sapiens, UniProt P33032); type: cell membranes, HEK293, Membrane; settings: hek293; note: in other assays of this panel Not Active means under 50% inhibition at 10 µM
Chain of Melanocortin receptor 5 (P33032 whole entry): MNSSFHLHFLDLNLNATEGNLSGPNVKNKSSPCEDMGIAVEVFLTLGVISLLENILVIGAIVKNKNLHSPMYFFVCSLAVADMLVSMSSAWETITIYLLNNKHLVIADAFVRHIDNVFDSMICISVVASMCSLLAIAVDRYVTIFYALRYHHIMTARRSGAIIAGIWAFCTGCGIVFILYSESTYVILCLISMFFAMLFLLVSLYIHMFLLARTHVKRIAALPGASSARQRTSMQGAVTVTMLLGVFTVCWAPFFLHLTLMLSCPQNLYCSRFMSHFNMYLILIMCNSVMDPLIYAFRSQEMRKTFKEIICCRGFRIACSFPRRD

Mu-type opioid receptor = Mu-type opioid receptor (Homo sapiens, UniProt P35372); assay: DRUGMATRIX: Opiate mu (OP3, MOP) radioligand binding (ligand: [3H] Diprenorphine); type: cell membranes, CHO-K1, Membrane; settings: cho-k1; Not Active = under 50% inhibition at 10 µM
Chain of Mu-type opioid receptor (P35372 whole entry): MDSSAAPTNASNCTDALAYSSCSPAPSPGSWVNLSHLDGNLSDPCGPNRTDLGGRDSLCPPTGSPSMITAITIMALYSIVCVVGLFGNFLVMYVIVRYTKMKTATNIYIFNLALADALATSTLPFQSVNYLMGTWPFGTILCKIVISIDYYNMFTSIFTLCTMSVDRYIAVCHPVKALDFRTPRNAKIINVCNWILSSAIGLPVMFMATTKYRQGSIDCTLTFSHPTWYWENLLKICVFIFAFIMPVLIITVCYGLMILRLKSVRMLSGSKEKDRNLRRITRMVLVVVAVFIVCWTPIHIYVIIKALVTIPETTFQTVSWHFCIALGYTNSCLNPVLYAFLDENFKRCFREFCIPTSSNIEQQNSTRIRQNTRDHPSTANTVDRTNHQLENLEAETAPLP

[4] = target: T2, Polyunsaturated fatty acid lipoxygenase ALOX15 (Oryctolagus cuniculus, UniProt P12530); assay: biochemical; type: tissue-based, Reticulocytes; settings: reticulocytes;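 note: inhibition of 15-lipoxygenase enzyme activity measured with linoleic acid as the substrate; in other assays of this panel Not Active means under 50% inhibition at 10 µM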
T2 sequence (P12530 whole entry): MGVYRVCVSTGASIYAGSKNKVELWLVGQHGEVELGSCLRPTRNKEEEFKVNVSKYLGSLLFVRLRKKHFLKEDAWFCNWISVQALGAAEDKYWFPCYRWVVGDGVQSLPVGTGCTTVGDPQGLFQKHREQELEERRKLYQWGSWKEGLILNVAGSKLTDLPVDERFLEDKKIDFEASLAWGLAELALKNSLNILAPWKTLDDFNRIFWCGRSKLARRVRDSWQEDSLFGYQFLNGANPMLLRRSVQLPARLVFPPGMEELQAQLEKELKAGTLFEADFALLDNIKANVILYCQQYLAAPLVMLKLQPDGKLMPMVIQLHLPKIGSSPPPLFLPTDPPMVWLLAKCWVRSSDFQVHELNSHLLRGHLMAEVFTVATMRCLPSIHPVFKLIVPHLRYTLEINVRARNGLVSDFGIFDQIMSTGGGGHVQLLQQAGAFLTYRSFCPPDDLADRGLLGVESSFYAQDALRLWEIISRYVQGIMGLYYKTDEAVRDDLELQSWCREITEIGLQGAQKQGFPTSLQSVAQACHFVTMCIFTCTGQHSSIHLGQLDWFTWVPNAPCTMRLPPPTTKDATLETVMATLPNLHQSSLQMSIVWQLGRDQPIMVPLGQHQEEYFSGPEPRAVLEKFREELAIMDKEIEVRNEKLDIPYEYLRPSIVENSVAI

[5] = target: T3, Cysteinyl leukotriene receptor 1 (Homo sapiens, UniProt Q9Y271); type: cell membranes, CHO-K1, Membrane; settings: cho-k1; note: in other assays of this panel Not Active means under 50% inhibition at 10 µM
T3 sequence (Q9Y271 whole entry): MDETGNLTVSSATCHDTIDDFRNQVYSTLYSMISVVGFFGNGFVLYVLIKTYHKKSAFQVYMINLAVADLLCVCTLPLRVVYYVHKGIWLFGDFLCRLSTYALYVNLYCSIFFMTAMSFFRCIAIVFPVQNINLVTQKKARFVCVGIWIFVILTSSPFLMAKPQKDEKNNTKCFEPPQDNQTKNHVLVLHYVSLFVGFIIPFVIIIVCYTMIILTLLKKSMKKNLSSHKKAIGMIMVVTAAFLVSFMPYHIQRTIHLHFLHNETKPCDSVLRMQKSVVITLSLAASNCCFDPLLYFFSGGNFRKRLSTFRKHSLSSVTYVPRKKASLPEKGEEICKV

[6] = DRUGMATRIX: Phorbol Ester radioligand binding (ligand: [3H] PDBu); type: cell membranes, Mus musculus, ICR, Brain, Membrane; settings: Not Active = under 50% inhibition at 10 µM
[7] = target: T4, C-C chemokine receptor type 4 (Homo sapiens, UniProt P51679); type: cell membranes, Membrane; settings: chem-1; note: in other assays of this panel Not Active means under 50% inhibition at 10 µM
T4 sequence (P51679 whole entry): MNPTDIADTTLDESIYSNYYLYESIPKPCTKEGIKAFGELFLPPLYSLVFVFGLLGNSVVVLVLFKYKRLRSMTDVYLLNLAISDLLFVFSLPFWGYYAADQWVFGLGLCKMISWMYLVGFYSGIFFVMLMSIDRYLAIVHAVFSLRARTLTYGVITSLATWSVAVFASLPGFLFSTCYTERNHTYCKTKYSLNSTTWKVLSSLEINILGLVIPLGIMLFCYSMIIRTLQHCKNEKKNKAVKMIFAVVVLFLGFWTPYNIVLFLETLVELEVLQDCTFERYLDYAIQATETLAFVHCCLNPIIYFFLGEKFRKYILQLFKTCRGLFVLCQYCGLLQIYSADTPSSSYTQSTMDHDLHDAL

CC(=O)O[C@]1(C(C)=O)CC[C@H]2[C@@H]3C=C(Cl)C4=CC(=O)CC[C@]4(C)[C@H]3CC[C@@]21C [CHLORMADINONE ACETATE]
Not Active: IC50 [1] | Ki [1] | IC50 [2] | IC50 [3] | IC50 (Melanocortin receptor 5) | IC50 (Mu-type opioid receptor) | IC50 [4] | IC50 [5] | IC50 [6] | Ki [6] | IC50 [7]

O=C1CCc2cc(OCCCCc3nnnn3C3CCCCC3)ccc2N1 [CILOSTAZOL]
Not Active: IC50 [1] | Ki [1] | IC50 [2] | IC50 [3] | IC50 (Melanocortin receptor 5) | IC50 (Mu-type opioid receptor) | IC50 [4] | IC50 [5] | IC50 [6] | Ki [6] | IC50 [7]

O=C(O)c1cn(C2CC2)c2cc(N3CCNCC3)c(F)cc2c1=O [CIPROFLOXACIN]
Not Active: IC50 [1] | Ki [1] | IC50 [2] | IC50 [3] | IC50 (Melanocortin receptor 5) | IC50 (Mu-type opioid receptor) | IC50 [4] | IC50 [5] | IC50 [6] | Ki [6] | IC50 [7]

CN(C)CCCC1(c2ccc(F)cc2)OCc2cc(C#N)ccc21 (centres undefined) [CITALOPRAM]
Not Active: IC50 [1] | Ki [1] | IC50 [2] | IC50 [3] | IC50 (Melanocortin receptor 5) | IC50 (Mu-type opioid receptor) | IC50 [4] | IC50 [5] | IC50 [6] | Ki [6] | IC50 [7]

COC(=O)[C@H](c1ccccc1Cl)N1CCc2sccc2C1 [CLOPIDOGREL]
Not Active: IC50 [1] | Ki [1] | IC50 [2] | IC50 [3] | IC50 (Melanocortin receptor 5) | IC50 (Mu-type opioid receptor) | IC50 [4] | IC50 [5] | IC50 [6] | Ki [6] | IC50 [7]

C[C@]12CCC(=O)C=C1CC[C@@H]1[C@@H]2C(=O)C[C@@]2(C)[C@H]1CC[C@]2(O)C(=O)CO [CORTISONE]
Not Active: IC50 [1] | Ki [1] | IC50 [2] | IC50 [3] | IC50 (Melanocortin receptor 5) | IC50 (Mu-type opioid receptor) | IC50 [4] | IC50 [5] | IC50 [6] | Ki [6] | IC50 [7]

Cc1ccccc1N1CCN(CCc2nnc3n2CCCC3)CC1 [DAPIPRAZOLE]
Not Active: IC50 [1] | Ki [1] | IC50 [2] | IC50 [3] | IC50 (Melanocortin receptor 5) | IC50 (Mu-type opioid receptor) | IC50 [4] | IC50 [5] | IC50 [6] | Ki [6] | IC50 [7]

CC1=Nc2ccc(Cl)cc2S(=O)(=O)N1 [DIAZOXIDE]
Not Active: IC50 [1] | Ki [1] | IC50 [2] | IC50 [3] | IC50 (Melanocortin receptor 5) | IC50 (Mu-type opioid receptor) | IC50 [4] | IC50 [5] | IC50 [6] | Ki [6] | IC50 [7]

CC(=O)OCC(=O)[C@@]1(OC(C)=O)[C@@H](C)C[C@H]2[C@@H]3C[C@H](F)C4=CC(=O)C=C[C@]4(C)[C@@]3(F)[C@@H](O)C[C@@]21C [DIFLORASONE DIACETATE]
Not Active: IC50 [1] | Ki [1] | IC50 [2] | IC50 [3] | IC50 (Melanocortin receptor 5) | IC50 (Mu-type opioid receptor) | IC50 [4] | IC50 [5] | IC50 [6] | Ki [6] | IC50 [7]
